Assay results as given in patent publication US7534808B2, “Indolylmaleimide derivatives” (priority 2002, dated 2009).
pIC50: −log10 of the molar value.

Experiments:
Human recombinant PKCθ = Human recombinant PKCθ (Homo sapiens, UniProt Q04759); assay: Protein Kinase C θ Assay; type: biochemical
Method: (§1) The compounds of formula I are tested for their activity on different PKC isoforms according to a published method (D. Geiges et al. Biochem. Pharmacol. 1997; 53:865-875) The assay is performed in a 96-well polypropylene microtiterplate (Costar 3794) that has been previously siliconized with Sigmacote (Sigma SL-2). The reaction mixture (50 μl) contains 10 μl of the relevant PKC isozyme together with 25 μl of the test compound and 15 μl of a mix solution that contains 200 μg/ml protamine sulfate, 10 mM Mg(NO3)2, 10 μM ATP (Boehringer 519987) and 3750 Bq of ^33P-ATP (Hartmann Analytic SFC301, 110TBq/mmol) in 20 mM Tris-buffer pH 7.4+0.1% BSA. Incubation is performed for 15 min at 32° C. in a microtiterplate shaking incubator (Biolabo Scientific Instruments). Reaction is stopped by adding 10 μl of 0.5 M Na2EDTA, pH 7.4. 50 μl of mixture are pipetted onto a pre-wetted phosphocellulose paper (Whatmann 3698-915) under gentle pressure. Non-incorporated ATP is washed away with 100 μl bi-dist H2O. The paper is washed twice in 0.5% H3PO4 for 15 min followed by 5 min in EtOH. Thereafter the paper is dryed and placed in an omnifilter (Packard 6005219), and overlayed with 10 μl/well of Microscint-O (Packard 6013611) before counting in a Topcount radioactivity counter (Packard). […] IC50 values are calculated from the graph by sigmoidal curve fitting. […]

Human recombinant PKCε = biological target: T1, Human recombinant PKCε (Homo sapiens, UniProt Q02156); assay: Protein Kinase Cε Assay; type: biochemical
T1 construct: purchased Oxford Biomedical Research
T1 sequence (Q02156 1-737): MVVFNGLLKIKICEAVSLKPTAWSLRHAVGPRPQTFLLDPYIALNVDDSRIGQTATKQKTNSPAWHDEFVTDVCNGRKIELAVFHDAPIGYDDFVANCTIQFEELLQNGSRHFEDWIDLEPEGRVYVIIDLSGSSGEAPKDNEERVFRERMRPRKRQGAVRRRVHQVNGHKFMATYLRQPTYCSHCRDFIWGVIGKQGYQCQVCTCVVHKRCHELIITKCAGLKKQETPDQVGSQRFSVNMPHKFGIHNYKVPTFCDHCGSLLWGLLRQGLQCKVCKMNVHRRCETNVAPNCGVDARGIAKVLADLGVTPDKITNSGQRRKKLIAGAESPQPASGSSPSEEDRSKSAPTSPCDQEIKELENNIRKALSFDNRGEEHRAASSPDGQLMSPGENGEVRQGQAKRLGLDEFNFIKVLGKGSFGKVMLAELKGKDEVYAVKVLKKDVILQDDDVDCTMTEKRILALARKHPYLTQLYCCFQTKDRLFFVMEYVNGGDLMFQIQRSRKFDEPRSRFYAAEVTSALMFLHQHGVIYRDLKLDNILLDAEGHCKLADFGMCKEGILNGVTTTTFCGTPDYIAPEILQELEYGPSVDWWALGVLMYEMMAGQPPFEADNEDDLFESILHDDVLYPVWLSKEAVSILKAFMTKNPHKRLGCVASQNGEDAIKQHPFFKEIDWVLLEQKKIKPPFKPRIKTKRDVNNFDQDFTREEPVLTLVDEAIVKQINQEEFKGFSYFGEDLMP
Method: as §1

Human recombinant PKCθ, sequence (Q04759 whole entry, canonical isoform): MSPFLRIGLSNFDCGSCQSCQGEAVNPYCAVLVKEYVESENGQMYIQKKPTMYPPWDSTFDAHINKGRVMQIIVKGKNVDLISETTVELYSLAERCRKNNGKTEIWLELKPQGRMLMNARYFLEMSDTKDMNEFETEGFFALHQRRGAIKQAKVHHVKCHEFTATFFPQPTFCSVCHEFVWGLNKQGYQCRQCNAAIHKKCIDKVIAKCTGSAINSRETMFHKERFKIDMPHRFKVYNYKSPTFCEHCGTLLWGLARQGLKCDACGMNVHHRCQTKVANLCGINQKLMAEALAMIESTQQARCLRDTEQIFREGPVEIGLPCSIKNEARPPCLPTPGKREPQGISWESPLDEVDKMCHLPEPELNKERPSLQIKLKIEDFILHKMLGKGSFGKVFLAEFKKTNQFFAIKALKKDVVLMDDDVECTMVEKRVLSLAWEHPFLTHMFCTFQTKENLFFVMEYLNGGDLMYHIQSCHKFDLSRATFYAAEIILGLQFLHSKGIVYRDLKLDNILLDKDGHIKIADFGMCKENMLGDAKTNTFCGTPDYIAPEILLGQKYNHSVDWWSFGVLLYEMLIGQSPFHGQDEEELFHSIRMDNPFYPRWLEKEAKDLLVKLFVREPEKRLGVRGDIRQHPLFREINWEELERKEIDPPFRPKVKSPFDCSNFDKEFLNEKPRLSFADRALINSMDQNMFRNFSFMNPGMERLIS

pIC50 (Human recombinant PKCθ): 7.92 | pIC50 (Human recombinant PKCε): 7.74
Compound: Cc1cccc2c(C3=C(c4nc(N5CCNC6(CC6)C5)cc5ccccc45)C(=O)NC3=O)c[nH]c12 [Example 69, 3-[3-(4,7-Diaza-spiro[2.5]oct-7-yl)-isoquinolin-1-yl]-4-(7-methyl-1H-indol-3-yl)-pyrrole-2,5-dione]
